The source made the active and inactive calls.
Columns and labels:
[1] = target: T1, Replicative DNA helicase DnaB (Mycobacterium tuberculosis, UniProt P9WMR3); experiment: DnaB intein splicing inhibitors, dose response, biochemical, cell-free fluorescence (AID 449749); type: functional
T1 sequence (P9WMR3 whole entry): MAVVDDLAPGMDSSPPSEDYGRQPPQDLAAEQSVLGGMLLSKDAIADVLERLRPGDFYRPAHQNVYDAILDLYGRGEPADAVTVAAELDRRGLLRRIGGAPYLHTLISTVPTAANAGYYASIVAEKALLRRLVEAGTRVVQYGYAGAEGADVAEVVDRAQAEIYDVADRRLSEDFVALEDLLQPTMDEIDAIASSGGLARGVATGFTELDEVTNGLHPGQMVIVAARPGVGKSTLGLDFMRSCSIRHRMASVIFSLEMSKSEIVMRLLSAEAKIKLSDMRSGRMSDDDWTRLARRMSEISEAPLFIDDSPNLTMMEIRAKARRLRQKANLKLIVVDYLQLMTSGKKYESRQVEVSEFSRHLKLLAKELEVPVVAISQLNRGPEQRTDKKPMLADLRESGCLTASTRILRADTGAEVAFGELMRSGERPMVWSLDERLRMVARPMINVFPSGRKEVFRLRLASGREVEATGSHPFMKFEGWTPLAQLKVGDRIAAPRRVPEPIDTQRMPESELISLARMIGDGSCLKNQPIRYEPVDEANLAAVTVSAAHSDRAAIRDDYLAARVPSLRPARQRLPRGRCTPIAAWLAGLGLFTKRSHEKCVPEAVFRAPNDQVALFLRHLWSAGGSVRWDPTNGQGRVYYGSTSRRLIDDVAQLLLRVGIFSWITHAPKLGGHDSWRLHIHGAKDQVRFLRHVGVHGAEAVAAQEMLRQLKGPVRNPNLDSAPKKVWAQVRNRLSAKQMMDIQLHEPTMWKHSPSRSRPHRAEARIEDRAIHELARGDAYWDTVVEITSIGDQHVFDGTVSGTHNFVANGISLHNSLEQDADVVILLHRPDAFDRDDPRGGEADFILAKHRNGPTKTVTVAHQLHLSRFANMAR

Hexokinase-1 = Hexokinase-1 (Homo sapiens, UniProt P19367); experiment: hexokinase 1 activators, dose response, selectivity assay for HKDC1 activator project, biochemical (AID 504762); type: functional
Sequence of Hexokinase-1 (P19367 whole entry): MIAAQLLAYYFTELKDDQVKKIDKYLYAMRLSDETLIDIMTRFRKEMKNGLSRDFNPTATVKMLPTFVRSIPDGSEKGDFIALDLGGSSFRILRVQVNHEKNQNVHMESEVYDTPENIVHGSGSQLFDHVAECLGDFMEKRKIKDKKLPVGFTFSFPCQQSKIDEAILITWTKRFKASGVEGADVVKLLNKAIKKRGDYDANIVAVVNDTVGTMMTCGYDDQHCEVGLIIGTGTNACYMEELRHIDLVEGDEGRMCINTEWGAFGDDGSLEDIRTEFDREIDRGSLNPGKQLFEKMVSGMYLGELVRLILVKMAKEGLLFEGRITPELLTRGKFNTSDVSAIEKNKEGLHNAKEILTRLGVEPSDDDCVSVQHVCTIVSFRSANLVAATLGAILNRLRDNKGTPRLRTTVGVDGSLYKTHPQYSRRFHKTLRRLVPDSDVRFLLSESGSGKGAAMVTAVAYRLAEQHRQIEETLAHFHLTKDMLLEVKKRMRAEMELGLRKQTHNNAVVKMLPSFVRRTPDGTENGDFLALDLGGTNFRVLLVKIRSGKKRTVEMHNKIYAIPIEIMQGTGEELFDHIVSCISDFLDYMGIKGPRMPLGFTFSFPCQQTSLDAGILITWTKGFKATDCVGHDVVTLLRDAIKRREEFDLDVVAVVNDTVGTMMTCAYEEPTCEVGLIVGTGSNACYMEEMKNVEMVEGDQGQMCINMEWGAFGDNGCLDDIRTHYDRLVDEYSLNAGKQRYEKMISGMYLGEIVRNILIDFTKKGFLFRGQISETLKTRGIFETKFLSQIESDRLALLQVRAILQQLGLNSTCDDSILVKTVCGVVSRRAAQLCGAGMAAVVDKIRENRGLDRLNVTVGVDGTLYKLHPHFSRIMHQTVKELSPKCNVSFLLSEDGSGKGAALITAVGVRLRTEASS

Caspase-3 = target: T2, Caspase-3 (Homo sapiens, UniProt P42574); type: functional;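 further: Dose-response selectivity test against caspase-3 for candidate inhibitors of sentrin-specific proteases (SENPs)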
T2 sequence (P42574 whole entry): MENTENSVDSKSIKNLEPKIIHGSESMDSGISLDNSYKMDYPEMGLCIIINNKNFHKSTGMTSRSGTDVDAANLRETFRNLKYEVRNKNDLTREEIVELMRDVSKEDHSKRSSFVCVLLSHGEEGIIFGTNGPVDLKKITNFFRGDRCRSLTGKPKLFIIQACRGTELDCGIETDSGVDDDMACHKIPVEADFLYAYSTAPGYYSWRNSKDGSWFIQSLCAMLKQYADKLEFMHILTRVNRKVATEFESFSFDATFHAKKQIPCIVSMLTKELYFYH

[2] = target: T3, Apoptotic protease-activating factor 1 (Homo sapiens, UniProt O14727); type: functional
T3 sequence (O14727 whole entry): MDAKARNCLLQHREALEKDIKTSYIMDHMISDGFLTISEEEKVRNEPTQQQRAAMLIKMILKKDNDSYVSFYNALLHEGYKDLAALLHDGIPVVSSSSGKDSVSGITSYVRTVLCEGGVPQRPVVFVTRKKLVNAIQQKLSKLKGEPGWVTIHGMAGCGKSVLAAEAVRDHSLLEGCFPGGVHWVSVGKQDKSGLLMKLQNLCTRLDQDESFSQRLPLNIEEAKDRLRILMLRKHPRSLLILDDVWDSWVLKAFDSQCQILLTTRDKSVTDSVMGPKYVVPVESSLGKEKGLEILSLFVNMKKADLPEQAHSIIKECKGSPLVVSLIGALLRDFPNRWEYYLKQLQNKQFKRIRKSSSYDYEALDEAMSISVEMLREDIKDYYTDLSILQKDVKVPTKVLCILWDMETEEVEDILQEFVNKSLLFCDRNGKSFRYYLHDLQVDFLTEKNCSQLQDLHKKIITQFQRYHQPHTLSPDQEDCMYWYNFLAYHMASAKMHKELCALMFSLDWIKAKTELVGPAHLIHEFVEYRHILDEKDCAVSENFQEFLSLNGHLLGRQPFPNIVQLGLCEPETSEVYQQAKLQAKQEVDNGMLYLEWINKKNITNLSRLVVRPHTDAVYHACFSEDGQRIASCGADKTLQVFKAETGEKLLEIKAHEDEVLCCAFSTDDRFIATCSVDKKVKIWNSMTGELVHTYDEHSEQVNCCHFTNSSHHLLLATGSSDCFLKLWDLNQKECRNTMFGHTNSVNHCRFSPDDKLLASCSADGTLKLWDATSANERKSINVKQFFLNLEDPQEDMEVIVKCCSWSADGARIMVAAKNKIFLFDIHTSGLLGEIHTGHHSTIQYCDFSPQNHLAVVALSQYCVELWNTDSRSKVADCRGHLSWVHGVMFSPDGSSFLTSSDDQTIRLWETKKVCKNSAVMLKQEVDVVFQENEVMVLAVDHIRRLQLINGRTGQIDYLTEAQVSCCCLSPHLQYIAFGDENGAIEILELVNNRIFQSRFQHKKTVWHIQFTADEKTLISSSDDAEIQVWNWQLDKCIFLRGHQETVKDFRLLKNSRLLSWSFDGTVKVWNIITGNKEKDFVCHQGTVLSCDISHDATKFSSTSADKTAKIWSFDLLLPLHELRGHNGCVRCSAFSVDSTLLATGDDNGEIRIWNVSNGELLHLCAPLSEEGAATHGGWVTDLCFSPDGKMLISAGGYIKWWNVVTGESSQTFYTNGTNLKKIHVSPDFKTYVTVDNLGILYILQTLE

[3] = target: T4, Sentrin-specific protease 8 (Homo sapiens, UniProt Q96LD8); type: functional;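 further: luminescence read-out of SENP8 inhibition, dose-response confirmation following an ultra-high-throughput screen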
T4 sequence (Q96LD8 whole entry): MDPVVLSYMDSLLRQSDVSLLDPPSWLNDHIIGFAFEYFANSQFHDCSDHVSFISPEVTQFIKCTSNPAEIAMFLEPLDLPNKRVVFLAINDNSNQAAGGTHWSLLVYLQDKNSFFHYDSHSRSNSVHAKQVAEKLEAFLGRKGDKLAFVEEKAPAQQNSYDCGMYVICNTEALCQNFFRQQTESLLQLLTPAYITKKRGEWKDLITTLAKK

[4] = Fluorescence-based cell-based high throughput dose response assay for inhibitors of the interaction of nucleotide-binding oligomerization domain containing 2 (NOD2) and the receptor-interacting serine-threonine kinase 2 (RIPK2).; type: functional, Homo sapiens; settings: Homo sapiens

Compound	AC50 [1]	EC50 (Hexokinase-1)	IC50 (Caspase-3)	IC50 [2]	IC50 [3]	IC50 [4]
O=C(O)CSc1cc(NS(=O)(=O)c2ccc(Br)cc2)c2ccccc2c1O	883 nM (active)	–	–	–	–	–
O=C1NC(=S)N/C1=C/c1cc2c(cc1[N+](=O)[O-])OCO2	–	37.9 µM (inactive)	27.6 µM (active)	12.9 µM (active)	9.01 µM (active)	–
Cc1ccc(NC(=O)C2=C(c3ccccc3)S(=O)(=O)CCS2(=O)=O)cc1	2180 nM (active)	–	–	–	–	2.73 µM (active)

Source: ChEMBL document CHEMBL1201862, “PubChem BioAssay data set” (2004)
